What all share (assay type): in vivo
Experiment [1] concerns Echinochloa crus-galli (L.) Beauv. var. crusgall (Ec). The experiment can be described thus: Test for herbicidal effect by upland field soil treatment (Test Example 2), Ec. The gist of the method:
(§1)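 Pre-emergence soil treatment: wettable powder diluted in water and sprayed on soil just sown with Ec and Se seeds, delivering 100 g active ingredient per 10 ares in 100 liters per 10 ares. Herbicidal effect was rated against a fixed scale 21 days later, after greenhouse growth.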

The subject of experiment [2] is Echinochloa oryzicola Vasing. (Eo). The experiment can be described thus: Test for herbicidal effect by paddy field soil treatment (Test Example 1). The following applies: application amount (active ingredient) 100 g/10 a, examined at the 21st day from the treatment, index per Table 40. A digest of the protocol: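 Scored on a standard scale at day 21 in the greenhouse: herbicidal effect of wettable powder applied to flooded water (3 cm depth) at 100 g a.i./10 ares, one day after sowing Eo into puddled paddy soil.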

Experiment [3] concerns Setaria viridis (L.) Beauv. (Se). Description: Test for herbicidal effect by upland field soil treatment (Test Example 2), Se. The gist of the method:
as §1

The test system of experiment [4] is Monochoria vaginalis Presl (Mo). The experiment can be described thus: Test for herbicidal effect during breeding period by paddy field water treatment (Test Example 5), Mo. The settings on record: paddy field water treatment at 1-leaf stage, 25 g/10 a active ingredient, 30th day. The method, then: (§2) [table] <Test Example 5> Test For Herbicidal Effect During Breeding Period By Paddy Field Water Treatment A paddy field soil was filled in a plastic pot of 100 cm^2 and subjected to puddling. Seeds of Monochoria vaginalis Presl (Mo) and Scirpus juncoides Roxb. subsp. juncoides Roxb. (Sc) were sowed; water was filled in a depth of 3 cm; and breeding was made. When Mo reached a 1-leaf stage and Sc reached a 2-leaf stage, wettable powders produced in accordance with the Formulation 1 were diluted with water and dropped on the water surface. […] Then, breeding was made in a greenhouse. At the 30th day from the treatment, the herbicidal effect of each wettable powder was examined in accordance with the standard shown in Table 40.

Experiment [5] has as its system Scirpus juncoides Roxb. subsp. juncoides Roxb. (Sc). Description: Test for herbicidal effect during breeding period by paddy field water treatment (Test Example 5), Sc. The settings on record: paddy field water treatment at 2-leaf stage, 25 g/10 a active ingredient, 30th day. The method, then:
as §2

The subject of experiment [6] is Polygonum lapathifolium L. subsp. nodosum (Pers.) Kitam. (Po). Description: Test for herbicidal effect to broadleaf weeds by upland field soil treatment (Test Example 6), Po. The settings on record: 25 g/10 a active ingredient, 30th day. Here is the method:
(§3) Test for herbicidal effect to broadleaf weeds by upland field soil treatment
(§4) An upland field soil was filled in a plastic pot of 80 cm^2. Seeds of Polygonum lapathifolium L. subsp. nodosum (Pers.) Kitam. (Po) and Chenopodium album L. (Ch) were sowed, followed by covering with the same soil. Wettable powders produced in accordance with the Formulation 1 were diluted with water and sprayed uniformly on the soil surface using a small sprayer, […] Then, breeding was made in a greenhouse. At the 30th day from the treatment, the herbicidal effect of each wettable powder was examined in accordance with the standard shown in Table 40.

The subject of experiment [7] is Echinochloa crus-galli (L.) Beauv. var. crusgalli (Ec). Description: Test for herbicidal effect by upland foliage treatment (Test Example 3). The settings on record: 100 g/10 a active ingredient, examined at 14th day. A digest of the protocol: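 Scored 14 days post-spray against a graded standard: greenhouse-grown Ec, 2 weeks old in upland soil, received whole-foliage application of diluted wettable powder (100 g active ingredient per 10 ares, spray volume 100 L per 10 ares).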

The subject of experiment [8] is Chenopodium album L. (Ch). The experiment can be described thus: Test for herbicidal effect to broadleaf weeds by upland field soil treatment (Test Example 6), Ch. The settings on record: 25 g/10 a active ingredient, 30th day. Here is the method: as §3, §4
The mark [9] stands for this setting: application amount (active ingredient) 100 g/10 a, examined at the 21st day from the treatment, index per Table 40.
Where [10] appears, read: 100 g/10 a active ingredient, examined at 21st day.

Structures are written as SMILES.

As to `O=S(=O)(Cc1c(F)cccc1F)C1=NOC2(CCC2)C1` [Compound 1-382], the “Herbicidal effect to Ec” value in experiment [1] (setting [9]) was 5 (A herbicidal effect or phytotoxicity of 90% or more). The “Herbicidal effect to Eo” value in experiment [2] is listed as 5 (A herbicidal effect or phytotoxicity of 90% or more). In experiment [3] (setting [9]), the “Herbicidal effect to Se” value is listed as 5 (A herbicidal effect or phytotoxicity of 90% or more). For the same compound, in experiment [4], the “Herbicidal effect to Mo” value is 5 (A herbicidal effect or phytotoxicity of 90% or more). In experiment [5], the “Herbicidal effect to Sc” value is given as 4 (A herbicidal effect or phytotoxicity of 70% to less than 90%).
`CC1CC(S(=O)(=O)Cc2c(F)cccc2F)=NO1` (stereo not drawn) [Compound 1-532]: the “Herbicidal effect to Po” value in experiment [6] was 5 (A herbicidal effect or phytotoxicity of 90% or more). In addition, the “Herbicidal effect to Ec” value in experiment [1] (setting [10]) is reported as 5 (A herbicidal effect or phytotoxicity of 90% or more); in experiment [7], 4 (A herbicidal effect or phytotoxicity of 70% to less than 90%). Moreover, the “Herbicidal effect to Eo” value in experiment [2] is 5 (A herbicidal effect or phytotoxicity of 90% or more). Further, the “Herbicidal effect to Se” value in experiment [3] (setting [10]) is reported as 4 (A herbicidal effect or phytotoxicity of 70% to less than 90%). In addition, the “Herbicidal effect to Ch” value in experiment [8] was 5 (A herbicidal effect or phytotoxicity of 90% or more).
For `CC1(C)CC(S(=O)(=O)Cc2c(F)cccc2[N+](=O)[O-])=NO1` [Compound 1-499], the “Herbicidal effect to Po” value in experiment [6] was 5 (A herbicidal effect or phytotoxicity of 90% or more). Further, the “Herbicidal effect to Ec” value in experiment [1] (setting [10]) and in experiment [7] was 5 (A herbicidal effect or phytotoxicity of 90% or more) throughout. Moreover, the “Herbicidal effect to Eo” value in experiment [2] is reported as 5 (A herbicidal effect or phytotoxicity of 90% or more). Besides, in experiment [3] (setting [10]), the “Herbicidal effect to Se” value is 5 (A herbicidal effect or phytotoxicity of 90% or more). The “Herbicidal effect to Ch” value in experiment [8] was 4 (A herbicidal effect or phytotoxicity of 70% to less than 90%).
`CCCOc1ccccc1CS(=O)(=O)C1=NOC(C)(C)C1` [Compound 1-46]: the “Herbicidal effect to Po” value in experiment [6] is 5 (A herbicidal effect or phytotoxicity of 90% or more). The “Herbicidal effect to Ec” value in experiment [1] (setting [9]) is 5 (A herbicidal effect or phytotoxicity of 90% or more); in experiment [7] it was 4 (A herbicidal effect or phytotoxicity of 70% to less than 90%). Also, the “Herbicidal effect to Eo” value in experiment [2] is 5 (A herbicidal effect or phytotoxicity of 90% or more). Moreover, the “Herbicidal effect to Se” value in experiment [3] (setting [9]) was 5 (A herbicidal effect or phytotoxicity of 90% or more). Also, the “Herbicidal effect to Ch” value in experiment [8] is 4 (A herbicidal effect or phytotoxicity of 70% to less than 90%).
With `COC(=O)c1cccc(F)c1CS(=O)(=O)C1=NOC(C)(C)C1` [Compound 1-555], the “Herbicidal effect to Po” value in experiment [6] was 5 (A herbicidal effect or phytotoxicity of 90% or more). Further, the “Herbicidal effect to Ec” value was 5 (A herbicidal effect or phytotoxicity of 90% or more) in experiment [1] (setting [10]) and 4 (A herbicidal effect or phytotoxicity of 70% to less than 90%) in experiment [7]. Moreover, the “Herbicidal effect to Eo” value in experiment [2] was 5 (A herbicidal effect or phytotoxicity of 90% or more). In addition, the “Herbicidal effect to Se” value in experiment [3] (setting [10]) was 5 (A herbicidal effect or phytotoxicity of 90% or more). Besides, the “Herbicidal effect to Ch” value in experiment [8] is on record as 4 (A herbicidal effect or phytotoxicity of 70% to less than 90%).
Regarding `CC1(CCl)CC(S(=O)(=O)Cc2ccccc2F)=NO1` (stereo not drawn) [Comparative compound 2, reference compound], in experiment [4], the “Herbicidal effect to Mo” value was 1 (A herbicidal effect or phytotoxicity of 10% to less than 30%). In experiment [5], the “Herbicidal effect to Sc” value is listed as 1 (A herbicidal effect or phytotoxicity of 10% to less than 30%).
As to `CC1(C)CC(S(=O)(=O)Cc2c(F)cccc2OC(F)F)=NO1` [Compound 1-573], the “Herbicidal effect to Po” value in experiment [6] is 5 (A herbicidal effect or phytotoxicity of 90% or more). Moreover, the “Herbicidal effect to Ec” value in experiment [1] (setting [10]) and in experiment [7] was 5 (A herbicidal effect or phytotoxicity of 90% or more) each time. In addition, in experiment [2], the “Herbicidal effect to Eo” value is recorded as 5 (A herbicidal effect or phytotoxicity of 90% or more). For the same compound, the “Herbicidal effect to Se” value in experiment [3] (setting [10]) was 5 (A herbicidal effect or phytotoxicity of 90% or more). In experiment [8], the “Herbicidal effect to Ch” value was 5 (A herbicidal effect or phytotoxicity of 90% or more).
Consider `CCOc1cccc(F)c1CS(=O)(=O)C1=NOC(C)(C)C1` [Compound 1-526], for which, in experiment [6], the “Herbicidal effect to Po” value was 5 (A herbicidal effect or phytotoxicity of 90% or more). Moreover, the “Herbicidal effect to Ec” value in experiment [1] (setting [10]) and in experiment [7] was 5 (A herbicidal effect or phytotoxicity of 90% or more) each time. Also, in experiment [2], the “Herbicidal effect to Eo” value is given as 5 (A herbicidal effect or phytotoxicity of 90% or more). The “Herbicidal effect to Se” value in experiment [3] (setting [10]) is 5 (A herbicidal effect or phytotoxicity of 90% or more). The “Herbicidal effect to Ch” value in experiment [8] is 5 (A herbicidal effect or phytotoxicity of 90% or more).
Turning to `CCc1ccccc1CS(=O)(=O)C1=NOC(C)(CCl)C1` (stereo not drawn) [Comparative compound 1, reference compound], in experiment [4], the “Herbicidal effect to Mo” value is recorded as 1 (A herbicidal effect or phytotoxicity of 10% to less than 30%). Moreover, in experiment [5], the “Herbicidal effect to Sc” value is listed as 1 (A herbicidal effect or phytotoxicity of 10% to less than 30%).
For the compound `CC1(C)CC(S(=O)(=O)Cc2c(F)cc(F)cc2F)=NO1` [Compound 1-500], in experiment [6], the “Herbicidal effect to Po” value was 5 (A herbicidal effect or phytotoxicity of 90% or more). The “Herbicidal effect to Ec” value in experiment [1] (setting [10]) and in experiment [7] was 5 (A herbicidal effect or phytotoxicity of 90% or more) each time. Besides, in experiment [2], the “Herbicidal effect to Eo” value is recorded as 5 (A herbicidal effect or phytotoxicity of 90% or more). Also, in experiment [3] (setting [10]), the “Herbicidal effect to Se” value was 5 (A herbicidal effect or phytotoxicity of 90% or more). In addition, in experiment [8], the “Herbicidal effect to Ch” value is listed as 4 (A herbicidal effect or phytotoxicity of 70% to less than 90%).
With `COc1cccc(F)c1CS(=O)(=O)C1=NOC(C)(C)C1` [Compound 1-534], the “Herbicidal effect to Po” value in experiment [6] is 5 (A herbicidal effect or phytotoxicity of 90% or more). Further, the “Herbicidal effect to Ec” value in experiment [1] (setting [10]) and in experiment [7] was 5 (A herbicidal effect or phytotoxicity of 90% or more) in each case. Besides, in experiment [2], the “Herbicidal effect to Eo” value is reported as 5 (A herbicidal effect or phytotoxicity of 90% or more). Moreover, the “Herbicidal effect to Se” value in experiment [3] (setting [10]) is reported as 5 (A herbicidal effect or phytotoxicity of 90% or more). Moreover, the “Herbicidal effect to Ch” value in experiment [8] is recorded as 5 (A herbicidal effect or phytotoxicity of 90% or more).
`CC1(C)CC(S(=O)(=O)Cc2cc(F)ccc2F)=NO1` [Compound 1-498]: the “Herbicidal effect to Po” value in experiment [6] is 5 (A herbicidal effect or phytotoxicity of 90% or more). Further, the “Herbicidal effect to Ec” value in experiment [1] (setting [10]) and in experiment [7] was 5 (A herbicidal effect or phytotoxicity of 90% or more) each time. Moreover, in experiment [2], the “Herbicidal effect to Eo” value is listed as 5 (A herbicidal effect or phytotoxicity of 90% or more). For the same compound, in experiment [3] (setting [10]), the “Herbicidal effect to Se” value is given as 5 (A herbicidal effect or phytotoxicity of 90% or more). Further, the “Herbicidal effect to Ch” value in experiment [8] was 5 (A herbicidal effect or phytotoxicity of 90% or more).
As for `Cc1cc(C)cc(CS(=O)(=O)C2=NOC(C)(C)C2)c1` [Compound 1-523], the “Herbicidal effect to Po” value in experiment [6] is recorded as 5 (A herbicidal effect or phytotoxicity of 90% or more). Moreover, the “Herbicidal effect to Ec” value in experiment [1] (setting [10]) and in experiment [7] was 5 (A herbicidal effect or phytotoxicity of 90% or more) throughout. Further, the “Herbicidal effect to Eo” value in experiment [2] is reported as 5 (A herbicidal effect or phytotoxicity of 90% or more). Moreover, the “Herbicidal effect to Se” value in experiment [3] (setting [10]) was 5 (A herbicidal effect or phytotoxicity of 90% or more). The “Herbicidal effect to Ch” value in experiment [8] is on record as 5 (A herbicidal effect or phytotoxicity of 90% or more).

The record behind these values is patent US6841519B1, “Isoxazoline derivatives and herbicides containing the same as the active ingredient” (Kumiai Chemical Industry Co., Ltd., priority 1999, dated 2005).
